Reference: patent US20010013317A1, “Medium for coloring live bait worms” (priority 1999, published 2001)
In brackets after ≈: the same amount, converted by molar mass. Entries after “also recorded” stand apart in the source; their conditions may differ.

Assays:
live bait worms [1] = experiment: Coloring and viability of live bait worms kept in peat loam medium mixed with colorant (8 oz cup, 12 worms); format: in vivo; conditions: for Effectiveness as worm coloring agent (coloration of worms) / Worm viability / mortality: powdered colorant in peat loam, 8 oz cup, inspected at 24 hrs, 36 hrs, 3-4 weeks
From the text: The inventor conducted numerous experiments to determine the effectiveness of a number of color additives to color live bait worms.
Experimental procedure. Each powdered colorant was mixed with peat loam medium and added to an 8 oz cup containing 12 healthy and natural worms. Concentrations given as mg colorant per 8 oz cup containing about 120 g peat loam. Worms were inspected for color and viability 24 hrs., 36 hrs., and when still viable, 3-4 weeks later.

live bait worms [2] = experiment: Incubation and storage of worms in bait cup topped with coloring medium; format: in vivo; conditions: 8-24 worms, 8 to 12 ounce cup, coloring medium 5 g colorant per kg, stored at 34° F. to 38° F.
Protocol: Alternatively, after the incubation, the above bulk colored worms can be divided into smaller amounts and stored in actual point-of-sale containers ready for use as bait by the end user rather than in bulk containers. For example, 8-24 of the worms previously colored in bulk as described above can be added to a normal 8 to 12 ounce Styrofoam, paper, or plastic bait cup and topped with the coloring medium (containing 5 g colorant D&C Yellow 8 per kg of the storage medium). When the container is capped with a lid and stored at 34° F. to 38° F., the worms will remain viable, and colored for about four to six weeks and are ready for immediate use as bait.
In another application of the process, the incubation and storage can be carried out in the same vessel. […]. In this case, the regular, uncolored, worms require an initial incubation period of about one week to lapsed before the worms acquire the desired color and intensity to be used as colored bait worms. The worms will then remain colored and viable in the bait cup of about four to six weeks. In both examples, the worms can be kept viable and colored indefinitely, if required, simply by changing the coloring medium once it has been consumed.

[3] = Solubility of colorant in water; conditions: at 25° C.
[4] = mg colorant per 8 oz cup containing about 120 g peat loam, 12 worms
[5] = 12 worms, listed as D&C Yellow No. 8

Structure (SMILES)	Effectiveness as worm coloring agent (coloration of worms) (live bait worms [1]; 12 worms)	Worm viability / mortality (live bait worms [1]; 12 worms)	Solubility in water [3] [mg/mL]	other results
O=C([O-])c1c(Cl)c(Cl)c(Cl)c(Cl)c1-c1c2cc(Br)c(=O)c(Br)c-2oc2c(Br)c([O-])c(Br)cc12.[Na+].[Na+] [D & C Red 28]	Worms become pinkish	mg. Increased mortality	–	Concentration range in which worms become colored (live bait worms [1]; [4]): tration between 50-800 mg
O=C1OC2(c3ccc([O-])cc3Oc3cc([O-])ccc32)c2ccccc21.[Na+].[Na+] [D & C Yellow 8, uranine]	main bright Chartreuse	very healthy and viable	–	Time worms remain viable and colored in bait cup (live bait worms [2]): about four to six; Amount at which dye remains non-toxic to worms (live bait worms [1]; bait cup containing 12 worms): about 2500 mg/8 ounce bait cup; Amount at which dye remains non-toxic, per worm (live bait worms [1]; from 2500 mg/8 ounce cup with 12 worms): about 150 mg dye per worm; Concentration at which worms remain very healthy and viable (live bait worms [1]; [4]): centration of >2500 mg.; Lowest concentration at which worms become and remain colored (live bait worms [1]; [4]): ≤ 25 mg. Preferred range; Effectiveness as worm coloring agent (coloration of worms) (live bait worms [1]; [5]): intense fluorescent chartreuse color; Worm viability / mortality (live bait worms [1]; [5]): non-toxic to worms; also recorded: not detrimental to the viability of the worms
CCN(Cc1cccc(S(=O)(=O)[O-])c1)c1ccc(C(=C2C=CC(=[N+](CC)Cc3cccc(S(=O)(=O)[O-])c3)C=C2)c2ccccc2S(=O)(=O)[O-])cc1.[Na+].[Na+] [FD & C Blue 1]	main blue. Worms	viable if carefully	–	–
O=C1/C(=C2\Nc3ccc(S(=O)(=O)[O-])cc3C2=O)Nc2ccc(S(=O)(=O)[O-])cc21.[Na+].[Na+] [FD & C Blue 2]	No colorization. Worms	remain viable	2	–
COc1cc(S(=O)(=O)[O-])c(C)cc1N=Nc1c(O)ccc2cc(S(=O)(=O)[O-])ccc12.[Na+].[Na+] [FD & C Red 40]	No coloration. Worms	remain viable	22	–
O=C(O)c1nn(-c2ccc(S(=O)(=O)O)cc2)c(O)c1N=Nc1ccc(S(=O)(=O)O)cc1 [FD & C Yellow 5]	Color not retained.	Worms remain viable	20 (≈ 42.7 mM)	–
O=S(=O)([O-])c1ccc(N=Nc2c(O)ccc3cc(S(=O)(=O)[O-])ccc23)cc1.[Na+].[Na+] [FD & C Yellow 6]	No coloration. Worms	remain viable	–	–
